# Results as given in article PMC5704756, “Hydrolysis, polarity, and conformational impact of C-terminal partially fluorinated ethyl esters in peptide models” (Beilstein Journal of Organic Chemistry, 2017).
# What was measured:
# [1] = Partitioning between octan-1-ol and water (NMR detection); type: physicochemical; conditions: octan-1-ol/water; 298 K, 24 hours partitioning, NMR
# Protocol: To characterize the lipophilicity, esters 1–5 were subjected to 24 hours of partitioning between octan-1-ol and water at 298 K. The resulting partition is illustrated in Figure 3. […] The lipophilicity of 2,2-difluoroethyl derivative 4 is nearly identical to that of parent ethyl ester 2, and the relative difference in the logP from the increase (5 vs 4, ΔlogP = +0.53 ± 0.13) and decrease (3 vs 4, ΔlogP = −0.45 ± 0.13) in the number of fluorine atoms are equivalent to one methyl group difference (2 vs 1, ΔlogP = +0.44 ± 0.08). The amplitude of the change is similar to that reported recently for the corresponding fluorinated ethanols. Importantly, C-terminal esterification maintains a much higher lipophilicity compared with the C-terminal amide 7 (Table 1).
# To 4–5 mg analyte, octan-1-ol (1.00 mL) and deionized water (1.00 mL) were added. The mixture was shaken gently at ambient temperature (298 ± 2 K) for 24 hours. Each phase (200 μL) was sampled using identical NMR tubes, and acetonitrile-d3 (300 μL) was added to each sample. The NMR measurements were performed by ^1H or ^19F detection at 298 K using calibrated 90-degree pulses and one-scan experiments in order to ensure complete pre-relaxation. The same acquisition parameters were used for the octan-1-ol and water samples; for processing, only the zero phase was adjusted. The spectra were baseline corrected, and equivalent resonances were integrated. The ratio between the signal intensities was considered as the partitioning constant. The partitioning experiments were performed in triplicate. Subsequent addition of water and octan-1-ol was performed in forward and reverse manner, and the resulting partitioning constants were identical within experimental error.
# [2] = set-up: method as in doi:10.1002/ijch.201600106; conditions: 310 K, amide rotation, value is k∙10^3, ref [69]; cited from earlier work
# [3] = Amide rotational thermodynamics and kinetics (trans/cis isomerism) by NMR / EXSY; type: physicochemical
# Description: For 1–5, we found the trans/cis ratios ≈ 5 for all five esters when measured in aqueous medium; the kinetic parameters of the amide rotation were also nearly identical (Table 2). We then noticed that the trans/cis ratios measured for the fluorine-labeled esters 3–5 in nonpolar solvents (such as benzene) were systematically higher relative to the reference compounds 1 and 2. We tested the relative increase in the trans-amide preference ΔΔG as a function of solvent (Equation 4) and found a dependence of this parameter on the dielectric constant, as would be expected from an electrostatic interaction between the polar alkoxy group and the amide moiety (Figure 4).
# The amide rotational thermodynamic and kinetic measurements were performed by NMR as described in [50, 68]. The equilibrium ratio between the rotameric states was obtained from the ^1H, ^19F and ^19F{^1H} (inverse-gated decoupling) spectra at 298 K by integration. The kinetics was measured in ^1H and/or ^19F{^1H} z-cross-relaxation experiments at either 310 K (for deuterium oxide samples) or 298 K (for benzene samples). The Jαβ-coupling values were obtained by visual inspection of the α-CH resonances in the ^1H NMR spectra, and the accuracy was defined by the length of the time domain spectrum at approximately 0.3 Hz. The semi-empirical calculations were performed by using the PM6 algorithm from the MOPAC package. DFT geometry optimization of the 5 amide rotamers was performed using B88-PW91 GGA with the DZVP basis set.
# [4] = Hydrolytic stability of esters 1–5 in aqueous potassium phosphate buffer, monitored by 1H and 19F NMR; type: physicochemical; conditions: pH 11.0, 298 K, ester hydrolysis, pseudo-first order
# Description: The kinetic stability of the ester linkage in the aqueous medium is of critical importance, as it further defines the time window for the reactions with the corresponding esters under the biologically relevant conditions of aqueous buffers. Hydrolysis of the C-terminal esters has been fairly well described in the literature, indicating the hydrolysis occurs via a pseudo-first order reaction in a buffered medium assuming that [HO^−] is constant (Equations 1–3): […]
# Next, we determined the half-life values following the above mentioned kinetic model for esters 1–5 in aqueous medium at pH 11 and 298 K (Figure 2). […] For the subsequent fluorine atoms, the hydrolysis rate increased by a factor of 3–4 for each appended fluorine atom. […] Extrapolation to pH 8.0 gives a value of 107 ± 28 hours. (This procedure requires multiplication by 1000.) We experimentally determined the half-life of 5 at pH 8 to be 102 ± 2 hours, which agrees well with the extrapolation. The mutual consistency of the values determined with different kinetic modes (minutes at pH 11, days at pH 8) provides a good indication of their accuracy.
# Aqueous potassium phosphate buffer (100 mM) at pH 11.0 or 8.0 was mixed with 1:10 (v/v) deuterium oxide to give 550 μL of 91 mM buffer. The analyte 1–5 was added from a 200 mM stock solution in deuterium oxide to give 0.5 mM analyte. The first NMR spectra were collected within 4 min following addition of the analyte. The monitoring was continued by recording ^1H and ^19F NMR spectra at regular time points until >50% hydrolysis. Ambient temperature was maintained at 298 ± 1 K. The decay of the integral intensity of the analyte was quantified by integration. Plotting the logarithm of the intensity versus time delivered the kinetic constant, which was converted to the half-life time (squared correlation coefficient > 0.90). The experiments were performed in triplicate.
# [5] = C6D6, 298 K, EXSY NMR, amide rotation, value is k∙10^3
compound,measurement,setting,value
"COC(=O)C1CCCN1C(C)=O (stereo not drawn) [compound 1, Methyl N-acetylprolinate]",logP at 24 h,[1],-0.44 ± 0.05
same,k∙10^3 cis→trans in D2O,[2],33 ± 2^c s^−1
same,k∙10^3 trans→cis in D2O,[2],7.0 ± 0.5^c s^−1
same,Ktrans/cis in C6D6,"[3]; C6D6 (ε 2.27), 298 K, analyte 50 ± 10 mM",5.10 ± 0.10
same,k∙10^3 cis→trans in C6D6,[3]; [5],342 ± 10 s^−1
same,k∙10^3 trans→cis in C6D6,[3]; [5],67 ± 2 s^−1
same,Ktrans/cis in CD2Cl2,"[3]; CD2Cl2 (ε 8.93), 298 K",4.18±0.03
same,Ktrans/cis in CD3CN,"[3]; CD3CN, 298 K",4.08±0.04
same,Ktrans/cis in CD3OD,"[3]; CD3OD (ε 32.7), 298 K",3.78±0.03
same,Ktrans/cis in CDCl3,"[3]; CDCl3 (ε 4.81), 298 K",3.84±0.04
same,Ktrans/cis in D2O,"[3]; D2O (ε 80.1), 298 K, analyte 50 ± 10 mM, 1H/19F NMR",4.94 ± 0.05
same,"τ½, min (aq buffer)",[4],224 ± 20 (pH 11.0) min
